One compound from PMC6017976, “Enzyme Kinetics and Molecular Docking Studies on Cytochrome 2B6, 2C19, 2E1, and 3A4 Activities by Sauchinone” (Molecules : A Journal of Synthetic Chemistry and Natural …, 2018) can be followed below.

Data set [1] deals with T1, CYP2B6 (Homo sapiens, UniProt P20813).
T1 construct: pooled human liver microsomes from a mixed pool of 50 donors; tissue BD Gentest Co. 452156; host or cells: human liver microsomes, pool of 50 donors
T1 sequence (P20813 1-491): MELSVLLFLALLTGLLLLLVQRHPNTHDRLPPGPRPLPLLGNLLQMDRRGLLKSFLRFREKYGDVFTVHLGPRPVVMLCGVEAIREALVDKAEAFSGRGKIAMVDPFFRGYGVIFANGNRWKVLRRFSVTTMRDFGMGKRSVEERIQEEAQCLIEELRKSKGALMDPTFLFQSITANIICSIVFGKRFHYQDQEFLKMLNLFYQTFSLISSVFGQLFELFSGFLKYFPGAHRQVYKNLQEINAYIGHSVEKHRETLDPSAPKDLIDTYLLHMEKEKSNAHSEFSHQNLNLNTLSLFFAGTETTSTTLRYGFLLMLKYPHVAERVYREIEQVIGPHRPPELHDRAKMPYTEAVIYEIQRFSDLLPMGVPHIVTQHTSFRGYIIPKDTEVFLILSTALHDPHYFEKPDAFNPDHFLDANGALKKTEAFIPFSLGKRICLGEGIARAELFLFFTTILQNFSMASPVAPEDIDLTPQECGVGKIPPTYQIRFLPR
The experiment in a line: Enzyme kinetic assay (Dixon plot, Ki) for CYP2B6 in HLMs. The class given is in vitro ADME. As to the method: (§1) Based on IC50 values, the Kis of sauchinone for CYP2B6, 2C19, 2E1, and 3A4 were determined. Different concentrations (20, 50, and 200 μM) of sauchinone were used. Other procedures were similar to those mentioned above regarding the reversible inhibitory effects of sauchinone. The inhibitory characteristics of sauchinone were initially estimated by nonlinear least squares regression analysis. Its Ki values were determined by Dixon plots.

The next data set has as its target T2, CYP2E1 (Homo sapiens, UniProt P05181).
T2 construct: pooled human liver microsomes from a mixed pool of 50 donors; tissue BD Gentest Co. 452156; host or cells: human liver microsomes, pool of 50 donors
The experiment in a line: Enzyme kinetic assay (Dixon plot, Ki) for CYP2E1 in HLMs. The format is in vitro ADME. Here is the method:
as §1

Another data set deals with T3, CYP2A6 (Homo sapiens, UniProt P11509).
T3 sequence (P11509 1-494): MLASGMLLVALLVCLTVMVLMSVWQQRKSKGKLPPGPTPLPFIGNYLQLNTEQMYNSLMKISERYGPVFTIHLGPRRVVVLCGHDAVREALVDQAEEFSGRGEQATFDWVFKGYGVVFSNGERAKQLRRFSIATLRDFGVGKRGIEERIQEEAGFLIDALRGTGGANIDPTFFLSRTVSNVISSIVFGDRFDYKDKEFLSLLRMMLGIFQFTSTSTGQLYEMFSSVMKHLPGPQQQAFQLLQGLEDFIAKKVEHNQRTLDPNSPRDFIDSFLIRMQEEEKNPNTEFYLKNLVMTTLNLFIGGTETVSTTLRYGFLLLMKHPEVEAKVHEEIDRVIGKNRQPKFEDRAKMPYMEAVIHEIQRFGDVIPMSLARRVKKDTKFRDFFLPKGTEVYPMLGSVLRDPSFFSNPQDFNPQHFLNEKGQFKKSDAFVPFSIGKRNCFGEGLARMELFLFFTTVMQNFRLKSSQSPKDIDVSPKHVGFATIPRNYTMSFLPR
The experiment in a line: Reversible inhibition (RI) of CYP2A6 activity in HLMs (cocktail probe assay).

The next data set addresses T4, CYP1A2 (Homo sapiens, UniProt P05177).
T4 sequence (P05177 1-516): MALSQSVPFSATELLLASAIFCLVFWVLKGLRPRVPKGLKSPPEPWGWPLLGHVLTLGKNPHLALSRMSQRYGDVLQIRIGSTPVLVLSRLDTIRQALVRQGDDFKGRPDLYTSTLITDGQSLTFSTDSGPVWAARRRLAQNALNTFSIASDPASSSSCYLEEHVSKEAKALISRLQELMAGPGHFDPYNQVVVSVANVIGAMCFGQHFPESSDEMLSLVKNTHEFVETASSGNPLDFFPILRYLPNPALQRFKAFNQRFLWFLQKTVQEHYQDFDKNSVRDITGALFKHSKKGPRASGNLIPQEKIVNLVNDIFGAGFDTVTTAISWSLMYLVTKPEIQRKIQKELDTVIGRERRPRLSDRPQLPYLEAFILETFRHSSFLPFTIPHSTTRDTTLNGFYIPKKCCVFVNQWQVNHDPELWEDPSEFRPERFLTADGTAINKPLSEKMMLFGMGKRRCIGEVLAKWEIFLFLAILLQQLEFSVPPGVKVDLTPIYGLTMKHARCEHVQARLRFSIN
Description: Time-dependent inhibition (TDI) IC50 shift assay on CYP1A2 in HLMs. The format is in vitro ADME. On the set-up: […]; tissue BD Gentest Co. 452156. Conditions: 10 min incubation.

The target in data set [2] is T5, CYP2C9 (Homo sapiens, UniProt P11712).
T5 construct: pooled human liver microsomes from a mixed pool of 50 donors; tissue BD Gentest Co. 452156; host or cells: human liver microsomes, pool of 50 donors
Description: Reversible inhibition (RI) of CYP2C9 activity in HLMs (cocktail probe assay). The format is in vitro ADME. Conditions: 100 μM tolbutamide, 30 min incubation.

Data set [3] has as its target T6, CYP3A4 (Homo sapiens, UniProt P08684).
T6 construct: pooled human liver microsomes from a mixed pool of 50 donors; tissue BD Gentest Co. 452156; host or cells: human liver microsomes, pool of 50 donors
The experiment in a line: Time-dependent inhibition (TDI) IC50 shift assay on CYP3A4 in HLMs. Conditions: for IC50: HLMs, 10 min incubation. The format is in vitro ADME.

The target in data set [4] is T6, CYP3A4. The experiment in a line: Reversible inhibition (RI) of CYP3A4 activity in HLMs (cocktail probe assay). The format is in vitro ADME. Conditions: testosterone hydroxylation, 50 μM testosterone, 30 min incubation.
Data set [5] has as its target T1, CYP2B6. The experiment in a line: Reversible inhibition (RI) of CYP2B6 activity in HLMs (cocktail probe assay). The class given is in vitro ADME. The settings on record: bupropion hydroxylation, 50 μM bupropion, 30 min incubation.
Another data set has as its target T7, CYP2C19 (Homo sapiens, UniProt P33261).
T7 construct: pooled human liver microsomes from a mixed pool of 50 donors; tissue BD Gentest Co. 452156; host or cells: human liver microsomes, pool of 50 donors
Description: Enzyme kinetic assay (Dixon plot, Ki) for CYP2C19 in HLMs. The class given is in vitro ADME. As to the method:
as §1

Data set [6] has as its target T5, CYP2C9. The experiment in a line: Time-dependent inhibition (TDI) IC50 shift assay on CYP2C9 in HLMs. Conditions: 10 min incubation. The format is in vitro ADME.

Structures are written as SMILES. Where two headings read alike, the source gives them in different places.

T6 sequence (P08684 whole entry): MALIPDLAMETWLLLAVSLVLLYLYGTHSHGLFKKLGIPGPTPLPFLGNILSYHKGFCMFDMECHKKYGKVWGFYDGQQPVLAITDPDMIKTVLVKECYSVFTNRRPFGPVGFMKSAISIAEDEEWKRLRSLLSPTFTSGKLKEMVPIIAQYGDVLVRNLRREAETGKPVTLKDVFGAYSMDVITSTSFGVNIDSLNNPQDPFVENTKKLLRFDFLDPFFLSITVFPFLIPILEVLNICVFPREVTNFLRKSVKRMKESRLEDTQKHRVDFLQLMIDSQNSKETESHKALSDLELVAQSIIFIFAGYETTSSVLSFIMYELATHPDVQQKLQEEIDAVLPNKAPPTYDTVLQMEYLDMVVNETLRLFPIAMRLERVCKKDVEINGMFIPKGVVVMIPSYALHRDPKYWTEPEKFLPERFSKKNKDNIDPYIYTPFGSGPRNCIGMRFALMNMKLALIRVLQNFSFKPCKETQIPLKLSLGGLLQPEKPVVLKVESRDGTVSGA
T5 sequence (P11712 whole entry): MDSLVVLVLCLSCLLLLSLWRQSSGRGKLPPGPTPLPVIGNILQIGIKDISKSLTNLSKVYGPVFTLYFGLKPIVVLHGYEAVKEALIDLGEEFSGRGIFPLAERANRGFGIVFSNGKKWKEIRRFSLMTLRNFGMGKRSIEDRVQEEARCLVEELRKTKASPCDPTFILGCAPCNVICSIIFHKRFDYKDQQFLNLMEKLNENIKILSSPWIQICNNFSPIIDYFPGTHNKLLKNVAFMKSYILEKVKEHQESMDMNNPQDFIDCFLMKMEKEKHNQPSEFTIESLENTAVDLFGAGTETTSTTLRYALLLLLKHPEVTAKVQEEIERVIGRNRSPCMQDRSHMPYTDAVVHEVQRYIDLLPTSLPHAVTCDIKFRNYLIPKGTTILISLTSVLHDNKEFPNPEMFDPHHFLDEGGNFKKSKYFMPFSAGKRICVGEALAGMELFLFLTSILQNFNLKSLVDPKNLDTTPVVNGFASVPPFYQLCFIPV
T7 sequence (P33261 whole entry): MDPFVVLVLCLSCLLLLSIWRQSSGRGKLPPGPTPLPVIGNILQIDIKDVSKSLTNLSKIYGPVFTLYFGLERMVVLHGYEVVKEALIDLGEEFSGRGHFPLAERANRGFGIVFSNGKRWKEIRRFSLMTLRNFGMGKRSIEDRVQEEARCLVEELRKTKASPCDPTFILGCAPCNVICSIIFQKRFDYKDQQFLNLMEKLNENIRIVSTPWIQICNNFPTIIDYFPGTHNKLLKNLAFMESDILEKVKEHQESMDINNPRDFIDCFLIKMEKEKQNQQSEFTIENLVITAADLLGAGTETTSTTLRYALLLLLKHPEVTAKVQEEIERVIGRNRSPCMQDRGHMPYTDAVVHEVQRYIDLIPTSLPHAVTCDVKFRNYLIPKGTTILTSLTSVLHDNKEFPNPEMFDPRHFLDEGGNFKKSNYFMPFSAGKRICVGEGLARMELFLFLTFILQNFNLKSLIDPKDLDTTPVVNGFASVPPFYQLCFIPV
T2 sequence (P05181 whole entry): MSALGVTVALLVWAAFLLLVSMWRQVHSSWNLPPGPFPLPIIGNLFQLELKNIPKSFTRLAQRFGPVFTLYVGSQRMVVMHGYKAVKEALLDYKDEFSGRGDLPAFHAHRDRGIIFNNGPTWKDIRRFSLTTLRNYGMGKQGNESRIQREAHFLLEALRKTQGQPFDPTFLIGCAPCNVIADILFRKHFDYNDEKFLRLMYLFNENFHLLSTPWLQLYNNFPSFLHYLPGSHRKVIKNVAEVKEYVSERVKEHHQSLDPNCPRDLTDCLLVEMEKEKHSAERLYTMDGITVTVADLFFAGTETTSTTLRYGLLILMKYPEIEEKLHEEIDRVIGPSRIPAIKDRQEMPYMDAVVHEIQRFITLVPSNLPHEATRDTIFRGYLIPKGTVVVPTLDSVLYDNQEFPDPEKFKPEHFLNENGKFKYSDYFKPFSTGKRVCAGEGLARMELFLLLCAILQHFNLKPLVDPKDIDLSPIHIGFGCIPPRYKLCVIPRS

Regarding `C[C@@H]1[C@H]2c3cc4c(cc3O[C@@]35OCOC3=CC(=O)[C@H](C[C@H]1C)[C@@H]25)OCO4` [Sauchinone], the Ki on CYP2B6 [1] (sauchinone 20, 50, 200 μM, read-out: Apparent inhibition constant (Ki) for CYP2B6) was found to be 14.3 µM; at CYP2E1 (sauchinone 20, 50, 200 μM, read-out: Apparent inhibition constant (Ki) for CYP2E1), 41.7 µM; on CYP2C19 (sauchinone 20, 50, 200 μM, read-out: Apparent inhibition constant (Ki) for CYP2C19), 16.8 µM. Besides, at CYP2B6 [1] (visual inspection), the “Type of reversible inhibition of CYP2B6 (Dixon plot model)” value is “noncompetitive”. On CYP2E1 (visual inspection), the “Type of reversible inhibition of CYP2E1 (Dixon plot model)” value was “noncompetitive”. Also, the IC50 (in general, the midpoint of a concentration-inhibition curve) was > 300 µM against CYP2A6; > 300 µM at CYP1A2 (0 min pre-incubation with NADPH, read-out: IC50 on CYP1A2, 0 min inactivation incubation (TDI)); > 300 µM at CYP1A2 (IC50 on CYP1A2, 30 min inactivation incubation (TDI), 30 min pre-incubation with NADPH); > 300 µM at CYP2C9 [2]; 24.5 ± 51.3 µM on CYP3A4 [3] (0 min pre-incubation with NADPH, read-out: IC50 on CYP3A4, 0 min inactivation incubation (TDI)); 1.14 ± 2.29 µM at CYP3A4 [3] (IC50 on CYP3A4, 30 min inactivation incubation (TDI), 30 min pre-incubation with NADPH). In addition, the IC50 is 0.207 ± 0.193 µM at CYP3A4 [4]; 0.458 ± 0.0932 µM at CYP2B6 [5]; > 300 µM on CYP2C9 [6] (0 min pre-incubation with NADPH, read-out: IC50 on CYP2C9, 0 min inactivation incubation (TDI)); > 300 µM at CYP2C9 [6] (IC50 on CYP2C9, 30 min inactivation incubation (TDI), 30 min pre-incubation with NADPH). On CYP3A4 [3] (human, human liver microsomes, pH 7.4, probe testosterone (substrate cocktail set)), the IC50 shift at 10 min amounted to 21.4. Moreover, the “Type of reversible inhibition of CYP2C19 (Dixon plot model)” value at CYP2C19 (visual inspection) is given as “noncompetitive”.
